Holding throughout (experiment): Cysteine liganding, probe competition
Common to all, as to format: binding

One assay addresses T1, UniProt Q5W0B1 (Homo sapiens, UniProt Q5W0B1).
T1 construct: 200 μL of lysate containing 5 mg/ml proteome was treated with 2 μL of 100× compound stock; endogenous in cells
T1 sequence (Q5W0B1 1-726): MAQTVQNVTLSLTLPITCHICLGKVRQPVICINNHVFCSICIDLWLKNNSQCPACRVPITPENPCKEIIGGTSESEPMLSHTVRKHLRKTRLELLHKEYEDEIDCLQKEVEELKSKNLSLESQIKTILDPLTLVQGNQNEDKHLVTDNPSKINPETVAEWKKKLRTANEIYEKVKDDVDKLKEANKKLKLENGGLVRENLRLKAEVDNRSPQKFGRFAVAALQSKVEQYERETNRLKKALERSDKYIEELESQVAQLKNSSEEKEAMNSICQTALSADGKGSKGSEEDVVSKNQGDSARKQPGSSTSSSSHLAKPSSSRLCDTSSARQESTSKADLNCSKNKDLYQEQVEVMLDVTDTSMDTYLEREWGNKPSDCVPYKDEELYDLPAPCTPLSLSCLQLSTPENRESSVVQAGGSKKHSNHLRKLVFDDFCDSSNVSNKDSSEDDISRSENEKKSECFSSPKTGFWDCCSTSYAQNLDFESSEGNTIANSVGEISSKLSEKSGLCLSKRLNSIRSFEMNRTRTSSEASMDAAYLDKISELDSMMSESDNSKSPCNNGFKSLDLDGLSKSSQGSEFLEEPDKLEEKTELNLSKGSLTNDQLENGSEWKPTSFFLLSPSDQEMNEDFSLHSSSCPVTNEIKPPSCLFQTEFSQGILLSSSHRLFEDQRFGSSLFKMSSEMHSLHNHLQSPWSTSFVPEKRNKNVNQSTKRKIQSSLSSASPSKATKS
From the text: (§1) The following 96-well sample prep protocol was used for sample preparation.

A further assay addresses T2, UniProt Q6PJ21 (Homo sapiens, UniProt Q6PJ21).
T2 construct: 200 μL of lysate containing 5 mg/ml proteome was treated with 2 μL of 100× compound stock; endogenous in cells
T2 sequence (Q6PJ21 1-355): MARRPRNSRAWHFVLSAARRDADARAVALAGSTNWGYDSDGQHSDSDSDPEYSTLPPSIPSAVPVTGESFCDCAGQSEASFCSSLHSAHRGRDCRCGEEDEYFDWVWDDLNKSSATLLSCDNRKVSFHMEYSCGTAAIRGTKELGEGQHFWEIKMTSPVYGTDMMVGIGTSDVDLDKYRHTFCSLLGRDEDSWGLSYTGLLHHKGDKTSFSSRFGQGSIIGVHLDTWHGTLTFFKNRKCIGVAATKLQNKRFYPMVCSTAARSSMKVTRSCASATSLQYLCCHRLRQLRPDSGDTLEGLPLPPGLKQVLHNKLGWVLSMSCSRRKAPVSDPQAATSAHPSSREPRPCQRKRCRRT
As to conditions: for inhibition at 100 µM / inhibition at 500 µM: read-out: percent_inhibition.
Text: as §1

The target in another assay is T3, UniProt Q86WC4 (Homo sapiens, UniProt Q86WC4).
T3 construct: Cells were resuspended in cold PBS on ice and sonicated with a probe sonicator to achieve lysis; endogenous in cells
T3 sequence (Q86WC4 32-334): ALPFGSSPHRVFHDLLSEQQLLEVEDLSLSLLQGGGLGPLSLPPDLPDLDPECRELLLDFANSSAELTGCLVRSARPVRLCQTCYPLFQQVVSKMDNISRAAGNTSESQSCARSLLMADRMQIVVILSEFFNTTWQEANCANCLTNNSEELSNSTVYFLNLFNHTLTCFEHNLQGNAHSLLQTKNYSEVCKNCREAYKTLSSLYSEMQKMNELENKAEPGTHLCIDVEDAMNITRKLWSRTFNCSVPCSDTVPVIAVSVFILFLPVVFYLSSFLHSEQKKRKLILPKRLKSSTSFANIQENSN
Text: as §1

The target of the next assay is T4, UniProt Q8WV44 (Homo sapiens, UniProt Q8WV44).
T4 construct: 200 μL of lysate containing 5 mg/ml proteome was treated with 2 μL of 100× compound stock; endogenous in cells
T4 sequence (Q8WV44 1-630): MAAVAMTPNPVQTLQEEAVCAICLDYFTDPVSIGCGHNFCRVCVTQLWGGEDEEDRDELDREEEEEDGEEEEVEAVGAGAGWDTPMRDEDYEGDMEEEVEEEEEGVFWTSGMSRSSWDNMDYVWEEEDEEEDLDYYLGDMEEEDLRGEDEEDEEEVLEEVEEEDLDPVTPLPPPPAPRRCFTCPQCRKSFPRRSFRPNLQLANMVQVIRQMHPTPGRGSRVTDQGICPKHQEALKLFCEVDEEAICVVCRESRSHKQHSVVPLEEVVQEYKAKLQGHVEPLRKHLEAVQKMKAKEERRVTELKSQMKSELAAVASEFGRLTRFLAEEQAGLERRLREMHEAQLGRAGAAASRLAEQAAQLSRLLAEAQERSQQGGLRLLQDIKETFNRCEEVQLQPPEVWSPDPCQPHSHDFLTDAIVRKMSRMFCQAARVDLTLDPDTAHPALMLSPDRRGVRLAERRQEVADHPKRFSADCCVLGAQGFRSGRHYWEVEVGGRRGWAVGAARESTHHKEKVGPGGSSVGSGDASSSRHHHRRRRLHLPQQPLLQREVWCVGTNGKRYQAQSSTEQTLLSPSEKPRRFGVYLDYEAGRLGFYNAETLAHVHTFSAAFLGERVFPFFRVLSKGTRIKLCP
Text: as §1

The target of the next assay is T5, UniProt Q9Y252 (Homo sapiens, UniProt Q9Y252).
T5 construct: 200 μL of lysate containing 5 mg/ml proteome was treated with 2 μL of 100× compound stock; endogenous in cells
T5 sequence (Q9Y252 1-685): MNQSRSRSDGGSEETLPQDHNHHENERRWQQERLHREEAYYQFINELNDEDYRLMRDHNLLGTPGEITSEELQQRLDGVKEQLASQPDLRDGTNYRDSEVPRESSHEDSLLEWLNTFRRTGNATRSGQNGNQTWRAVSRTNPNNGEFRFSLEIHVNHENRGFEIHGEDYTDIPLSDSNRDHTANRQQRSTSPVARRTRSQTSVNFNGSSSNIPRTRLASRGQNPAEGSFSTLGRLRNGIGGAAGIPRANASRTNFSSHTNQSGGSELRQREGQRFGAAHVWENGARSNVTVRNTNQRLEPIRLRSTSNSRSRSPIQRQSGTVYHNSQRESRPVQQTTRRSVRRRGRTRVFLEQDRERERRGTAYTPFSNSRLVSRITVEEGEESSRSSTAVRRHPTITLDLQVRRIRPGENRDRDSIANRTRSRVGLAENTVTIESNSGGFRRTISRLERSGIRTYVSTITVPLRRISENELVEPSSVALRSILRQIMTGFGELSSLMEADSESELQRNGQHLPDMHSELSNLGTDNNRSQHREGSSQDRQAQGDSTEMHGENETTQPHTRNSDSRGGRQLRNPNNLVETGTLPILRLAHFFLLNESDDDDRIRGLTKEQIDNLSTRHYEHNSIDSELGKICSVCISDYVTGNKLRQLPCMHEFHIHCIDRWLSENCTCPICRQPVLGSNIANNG
As to conditions: for inhibition at 500 µM: read-out: percent_inhibition.
Text: as §1

The mark [1] stands for this setting: 500 uM, read-out: percent_inhibition.

Read-outs that look alike come from different tables or passages of the source.

The text below walks through data of patent US20200239530A1, “COMPOUNDS AND METHODS OF MODULATING PROTEIN DEGRADATION” (Vividion Therapeutics, Inc., priority 2017, published 2020).

`O=C(CCl)Nc1cc(C(F)(F)F)cc(C(F)(F)F)c1` [KBO3]: the percent_inhibition on UniProt Q5W0B1 (500 uM) stood at 28%; at UniProt Q6PJ21 (100 uM), 25%; at UniProt Q6PJ21 (500 uM), 52%; on UniProt Q9Y252 (500 uM), 9%. Besides, at UniProt Q86WC4 (500 uM), the “KB03_500 uM_percent_inhibition” value is reported as 58%. Further, the “KB03_100 uM_percent_inhibition” value on UniProt Q8WV44 (100 uM) is reported as 31%.

As to `COc1ccc2c(c1)CCCN2C(=O)CCl` [KB02], the inhibition at 100 µM on UniProt Q5W0B1 (100 uM, read-out: percent_inhibition) amounted to 17%; on UniProt Q6PJ21 (100 uM) it was 5%; on UniProt Q8WV44 (100 uM, read-out: KB02_100 uM_percent_inhibition) it was 15%. Moreover, the inhibition at 500 µM on UniProt Q5W0B1 (setting [1]) came out at 54%; on UniProt Q6PJ21 (500 uM) it was 8%; on UniProt Q86WC4 (read-out: KB02_500 uM_percent_inhibition), 68%; on UniProt Q9Y252, 38%.

Consider `C=CC(=O)N(c1ccccc1)c1ccc(Br)cc1` [KB05], for which the inhibition at 500 µM on UniProt Q5W0B1 (setting [1]) worked out at 48%; at UniProt Q6PJ21 (500 uM), 30%; on UniProt Q86WC4 (read-out: KB05_500 uM_percent_inhibition) it was 66%; on UniProt Q8WV44 (500 uM, read-out: KB05_500 uM_percent_inhibition), 50%; on UniProt Q9Y252, 51%. Moreover, at UniProt Q6PJ21 (100 uM), the inhibition at 100 µM came to 4%.
